Converted amounts (≈) assume the structure as drawn.

Data on 4 compounds can be found in paper PMC4721540, “Selective activators of protein phosphatase 5 target the auto-inhibitory mechanism” (Bioscience Reports, 2015).

One data set is described as follows: physchem. The data set is classed as physicochemical. The note with it: 20 °C, pH 7.5, aqueous buffer. The procedure: (§1) Phosphatase assays for characterization of PP5 and PPH-5 properties were performed in 40 mM HEPES/KOH, 20 mM KCl, 5 mM MnCl2, 1 mM DTT, pH 7.5 and 60 mM pNPP at 20°C if not indicated otherwise. Phosphatase concentrations ranged from 50 to 500 nM in the assay. If indicated, the CeHsp90/DAF-21 peptide AEEDASRMEEVD was supplemented in the assay at a concentration of 60 μM. […] These concentrations were 70 μM for P5SA-1, 140 μM for P5SA-2, 50 μM for P5SA-3, 100 μM for P5SA-4 and 45 μM for P5SA-5.

The target of the next data set is T1, PP5 (Rattus norvegicus, UniProt P53042).
T1 construct: His tag (inferred from pET28 vector and HisTrap purification); made in house; host or cells: E. coli BL21-CodonPlus (DE3)-RIL
T1 sequence (P53042 1-499): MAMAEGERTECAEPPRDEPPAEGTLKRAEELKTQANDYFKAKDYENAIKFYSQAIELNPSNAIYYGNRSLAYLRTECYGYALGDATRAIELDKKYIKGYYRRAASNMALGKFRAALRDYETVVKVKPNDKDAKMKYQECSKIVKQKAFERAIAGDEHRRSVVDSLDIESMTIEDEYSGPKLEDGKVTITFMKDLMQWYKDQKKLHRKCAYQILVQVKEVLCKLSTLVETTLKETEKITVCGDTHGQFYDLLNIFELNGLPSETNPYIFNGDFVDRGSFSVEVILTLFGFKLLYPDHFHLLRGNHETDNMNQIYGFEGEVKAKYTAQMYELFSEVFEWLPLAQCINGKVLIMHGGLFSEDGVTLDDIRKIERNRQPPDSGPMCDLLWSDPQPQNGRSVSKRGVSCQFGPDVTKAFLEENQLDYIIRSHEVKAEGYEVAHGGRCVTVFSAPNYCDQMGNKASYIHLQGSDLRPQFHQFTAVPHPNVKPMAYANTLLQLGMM
Description: pNPP phosphatase assay with rat PP5. The data set is classed as biochemical, R. norvegicus. The note with it: PP5 (R. norvegicus). As for the experimental part: as §1

A further data set has as its target T2, PPH-5 (Caenorhabditis elegans, UniProt Q9NES8).
T2 construct: made in house
T2 sequence (Q9NES8 1-496): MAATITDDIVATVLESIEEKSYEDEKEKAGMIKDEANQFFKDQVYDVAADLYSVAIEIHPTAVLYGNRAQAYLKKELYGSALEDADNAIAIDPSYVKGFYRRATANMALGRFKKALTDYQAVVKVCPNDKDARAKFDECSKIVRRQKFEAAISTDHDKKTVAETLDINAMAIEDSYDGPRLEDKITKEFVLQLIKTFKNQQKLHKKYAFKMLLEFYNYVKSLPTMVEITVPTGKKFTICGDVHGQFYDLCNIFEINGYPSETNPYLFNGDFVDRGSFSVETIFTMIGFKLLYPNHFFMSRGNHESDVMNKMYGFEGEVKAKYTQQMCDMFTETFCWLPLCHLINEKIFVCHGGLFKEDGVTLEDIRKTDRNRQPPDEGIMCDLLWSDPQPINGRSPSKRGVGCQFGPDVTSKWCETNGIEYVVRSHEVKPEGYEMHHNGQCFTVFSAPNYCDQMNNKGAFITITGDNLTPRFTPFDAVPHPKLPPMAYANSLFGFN
The experiment in a line: pNPP phosphatase assay with nematode PPH-5. The data set is classed as biochemical, C. elegans. The conditions noted are these: for kcat / fold activation: PPH-5 (C. elegans); for kcat: 60 mM pNPP, in presence of compound; for fold activation: based on kcat compared with PPH-5 basal activity; for activation of PPH-5 phosphatase activity: substances at 50 ng/ml, DMSO control. As for the experimental part: The compound library consisting of 10000 compounds (New Chemistry and Discovery Chemistry Collection, ChemDiv) was screened using a chromometric phosphatase assay with para-nitrophenyl phosphate (pNPP) as substrate. Phosphatase activity was determined by the conversion of pNPP to para-nitrophenole and absorption of the product at 410 nm (ε: 15100 cm^−1 M^−1). Assays were performed in 96-well plates in a PerkinElmer EnVision instrument with 50 nM of PPH-5. Reaction volume was 100 μl in a buffer of 40 mM HEPES, pH 7.5, 20 mM KCl, 5 mM MnCl2 and 1 mM DTT. The reaction was started by adding pNPP to a final concentration of 60 mM. The slope of the reaction was determined and deviations of >30% were considered potential hits leading to a collection of 76 initial compounds. […] These 76 compounds were maintained and rescreened individually in a Varian Cary 100 spectrophotometer (Agilent Technologies) in Hellma SUPRASIL precision quarz cells (10-mm path length) and 140 μl of reaction volumes. Finally, five compounds were obtained as reproducible activators and selected for further characterization.
as §1

For data set [1], the target named is T3, PPH-5 - CeHsp90/DAF-21 complex (Caenorhabditis elegans, UniProt Q9NES8).
T3 construct: made in house
Description: Analytical ultracentrifugation of PPH-5/YFP-Hsp90 complex formation. The conditions noted are these: peptide 60 μM. The data set is classed as binding, C. elegans. As for the experimental part: Binding of Hsp90 to PPH-5 was analysed by analytical ultracentrifugation with fluorescence detection as described before. Experiments were performed in a Beckman ProteomeLab XL-A analytical ultracentrifuge (Beckman) equipped with an AU-FDS detector (Aviv Biomedical). Analytical ultracentrifugation (AUC) runs were performed in 40 mM HEPES/KOH, pH 7.5, 20 mM KCl, 1 mM DTT. The concentration of labelled YFP–Hsp90 was 300 nM and 3 μM of PPH-5 were added to form a complex with YFP–Hsp90. Where indicated 60 μM of the C-terminal Hsp90/DAF-21 peptide (AEEDASRMEEVD) was present in the sample. Centrifugation was performed at 20°C and 142000 g for 12 h. Scans were recorded every 90 s. Data analysis was performed using a dc/dt approach according to Stafford. The dc/dt plots were fit to Gaussian functions in order to obtain the s20,w values of the respective species as described previously. P5SAs were added as indicated.

Take `FC(F)(F)c1c2c(nc3c(-c4ccc(Cl)cc4)cnn13)CCC2` [P5SA-1]: the solubility (commonly the concentration that dissolves in the medium under given conditions) in the data set “physchem” is 70 µM (≈ 23.6 µg/mL). Also, the fold activation on PP5 (compound at 100 μM) was 4.1. In addition, on PPH-5, the kcat – broadly, the maximal rate divided by the concentration of active sites – was determined as 2.28 ± 0.28 s⁻¹; the fold activation amounted to 3.7; the “activation of PPH-5 phosphatase activity” value is “activate PPH-5”.

On to `CN1CCc2c(sc(-n3cccc3)c2CNC(=O)NC23CC4CC(CC(C4)C2)C3)C1` [P5SA-3], for which the solubility in “physchem” was determined as 50 µM (≈ 21.2 µg/mL). In addition, at PP5 (compound at 30 μM (solubility limited)), the fold activation worked out at 2.9. Also, at PPH-5, the fold activation is recorded as 4.0 and the “activation of PPH-5 phosphatase activity” value is “activate PPH-5”.

For the compound `O=c1cc2nc(-c3ccc(F)cc3)nc(SCc3ccc(Br)cc3)n2[nH]1` [P5SA-4], the concentration in solution in the data set “physchem” (solubility) came to 100 µM (≈ 43.1 µg/mL). Moreover, the fold activation on PP5 (compound at 100 μM) was 3.0. On PPH-5, the kcat is 4.85 ± 0.43 s⁻¹, the fold activation amounted to 7.8 and the “activation of PPH-5 phosphatase activity” value is listed as “activate PPH-5”.

With “AEEDASRMEEVD [MEEVD peptide, C-terminal Hsp90/DAF-21 peptide from Biomatik, used as control to disrupt the PPH-5–Hsp90 complex]”, the “effect on complex formation between PPH-5 and YFP–Hsp90” value in data set [1] (300 nM YFP–Hsp90, 3 μM PPH-5, P5SAs at maximal soluble concentration) is listed as “complex formation is strongly reduced”. In addition, the “sedimentation coefficient s20,w of YFP–Hsp90 with PPH-5 in presence of substance” value in data set [1] (complex without substance 8.9 S, YFP–Hsp90 alone 6.8 S) worked out at 7.6 S.
